{
  "source": "patent US20180318275A1",
  "about": "“COMBINATION THERAPY USING PI3K INHIBITOR AND MDM2 INHIBITOR” (Novartis AG, priority 2015, published 2018)",
  "assay_type_in_all_cases": "cell-based",
  "key": {"RKO": {"tested_on": "RKO", "experiment": "Cell proliferation (cell count by microscopy), Example 2", "conditions": "Homo sapiens, single agent, 72 h, cell count relative to DMSO", "method": "(§1) COMPOUNDS A and B were dissolved in 100% DMSO (Sigma, Catalog number D2650) at concentrations of 20 mM and stored at −20° C. until use. Compounds were arrayed in drug master plates (Greiner, Catalog number 788876) and serially diluted 3-fold (7 steps) at 2000× concentration.\n(§2) To test the effect of the combination of COMPOUND A and COMPOUND B on cell proliferation cells were plated in black 384-well microplates with clear bottom (Matrix/Thermo Scientific, Catalog number 4332) in 50 μL media per well at cell densities between 500 and 1250 cells/well (Table 1) and allowed to incubate at 37 degrees, 5% CO2 for 24 h. After 24 h one 384-well plate per cell line was prepared for cell counting by microscopy (see below) without receiving treatment (=‘baseline’). The other cell plates were treated by transferring 25 nL of the 2000× compound from drug master plates using an ATS acoustic liquid dispenser (ECD Biosystems) and resulting in a final 1× concentration. COMPOUND A was used over a final concentration range of 13 nM-10 μM, and COMPOUND B was used over a final concentration range of 13 nM-10 μM (7 1:3 dilution steps). For the combination of COMPOUND A with COMPOUND B the single agents were combined at a fixed ratio of 1:1 at each dilution resulting in 7 combination treatments. […] After compound addition 50 nL of 2 mM CellEvent Caspase-3/7 Green Detection Reagent (ThermoFisher, Catalog number C10423) were added to one of the three replicates using the HP D300 Digital Dispenser (Tecan). Caspase 3/7 induction was measured as a proxy for apoptosis induced by the treatments. Cells were treated for 72 h to 96 h depending on their doubling time (Table 1), and Caspase 3/7 activation was measured every 24 h by microscopy using an InCell Analyzer 2000 (GE Healthcare) equipped with a 4× objective and FITC excitation/emission filters. At the end of the treatment cells were prepared for cell counting by microscopy. Cells were fixed and permeabilised for 45 minutes in 4% PFA (Electron Microscopy Sciences, Catalog number 15714), 0.12% TX-100 (Electron Microscopy Sciences, Catalog number 22140) in PBS (Boston Bioproducts, Catalog number BM-220). After washing cells three times with PBS their DNA was stained for 30 minutes with Hoechst 33342 (ThermoFisher, Catalog number H3570) at a final concentration of 4 μg/mL. Cells were washed three times with PBS and then plates were heat-sealed using a PlateLoc (Agilent Technologies) with aluminum seals (Agilent Technologies, Catalog number 06644-001) and stored at 4° C. until imaging. All cells per well/treatment were captured in a single image by fluorescence microscopy using an InCell Analyzer 2000 (GE Healthcare) equipped with a 4× objective and DAPI excitation/emission filters.\n(§3) Images were analyzed after adapting previously described methods (Horn, Sandmann et al. 2011, Nat. Methods 8(4): 341-346) and using the Bioconductor package EBImage in R (Pau, Fuchs et al. 2010, Bioinformatics 26(7):979-981). Objects in both channels, DAPI (for Hoechst/DNA) and FITC (for Caspase 3/7), were segmented separately by adaptive thresholding and counted. A threshold for Caspase 3/7 positive objects was defined manually per cell line after comparing negative controls (DMSO) and positive controls (Staurosporine). By analyzing 17 additional object/nuclei features in the DNA channel (shape and intensity features) debris/fragmented nuclei were identified. To this end per cell line the distributions of the additional features between positive controls (Staurosporine) and negative controls (DMSO) were compared manually. Features that could differentiate between the conditions (e.g. a shift in the distribution of a feature measurement comparing DMSO with Staurosporine) where used to define the ‘debris’ population versus the population of ‘viable’ nuclei. The debris counts were subtracted from raw nuclei counts. The resulting nuclei number was used as measure of cell proliferation (‘cell count’). […]"}, "LS-180": {"tested_on": "LS-180", "experiment": "Cell proliferation (cell count by microscopy), Example 2", "conditions": "Homo sapiens, LS180; LS-160 (so in the source), single agent, 72 h, cell count relative to DMSO", "method": "as §1, §2, §3"}, "GP2d": {"tested_on": "GP2d", "experiment": "Cell proliferation (cell count by microscopy), Example 2", "conditions": "single agent, 72 h, cell count relative to DMSO, unit from text b187 (micromolar, top dose 10 μM)", "method": "as §1, §2, §3"}, "HCT-116": {"tested_on": "HCT-116", "experiment": "Cell proliferation (cell count by microscopy), Example 2", "conditions": "Homo sapiens; HCT-116, single agent, 72 h, cell count relative to DMSO", "method": "as §1, §2, §3"}, "LoVo": {"tested_on": "LoVo", "experiment": "Cell proliferation (cell count by microscopy), Example 2", "conditions": "Homo sapiens, single agent, 96 h, cell count relative to DMSO", "method": "as §1, §2, §3"}, "[1]": {"tested_on": "5 TP53 wild type colorectal cancer cell lines", "experiment": "Cell proliferation over the cell line panel, Example 2", "conditions": "Example 2, panel of 5 lines, 13 nM-10 μM", "method": "To test the effect of the combination of COMPOUND A and COMPOUND B on cell proliferation cells were plated in black 384-well microplates with clear bottom (Matrix/Thermo Scientific, Catalog number 4332) in 50 μL media per well at cell densities between 500 and 1250 cells/well (Table 1) and allowed to incubate at 37 degrees, 5% CO2 for 24 h. After 24 h one 384-well plate per cell line was prepared for cell counting by microscopy (see below) without receiving treatment (=‘baseline’). The other cell plates were treated by transferring 25 nL of the 2000× compound from drug master plates using an ATS acoustic liquid dispenser (ECD Biosystems) and resulting in a final 1× concentration. COMPOUND A was used over a final concentration range of 13 nM-10 μM, and COMPOUND B was used over a final concentration range of 13 nM-10 μM (7 1:3 dilution steps). […] Caspase 3/7 induction was measured as a proxy for apoptosis induced by the treatments. Cells were treated for 72 h to 96 h depending on their doubling time (Table 1), and Caspase 3/7 activation was measured every 24 h by microscopy using an InCell Analyzer 2000 (GE Healthcare) equipped with a 4× objective and FITC excitation/emission filters. […] All cells per well/treatment were captured in a single image by fluorescence microscopy using an InCell Analyzer 2000 (GE Healthcare) equipped with a 4× objective and DAPI excitation/emission filters. […]"}},
  "data": [
    {"compound": "Cc1nc(NC(=O)N2CCC[C@H]2C(N)=O)sc1-c1ccnc(C(C)(C)C(F)(F)F)c1", "note": "[COMPOUND A, (S)-Pyrrolidine-1,2-dicarboxylic acid 2-amide 1-({4-methyl-5-[2-(2,2,2-trifluoro-1,1-dimethyl-ethyl)-pyridin-4-yl]-thiazol-2-yl}-amide)]", "values": [
      {"measurement": "IC50", "setting": "RKO", "value": 3900, "unit": "nM"},
      {"measurement": "IC50", "setting": "LS-180", "value": "> 10000", "unit": "nM"},
      {"measurement": "IC50", "setting": "GP2d", "value": 500, "unit": "nM"},
      {"measurement": "IC50", "setting": "HCT-116", "value": 9800, "unit": "nM"},
      {"measurement": "IC50", "setting": "LoVo", "value": "> 10000", "unit": "nM"},
      {"measurement": "Single agent growth inhibition, in words", "setting": "[1]", "value": "inhibited the growth of 2 of the cell lines with micromolar IC50 values, and was active only at the highest dose (10 μM) in the 3 other lines"}
    ]},
    {"compound": "COc1cc2c(cc1OC(C)C)[C@H](c1ccc(Cl)cc1)N(c1ccc(N(C)C[C@H]3CC[C@H](N4CCN(C)C(=O)C4)CC3)cc1)C(=O)C2", "note": "[COMPOUND B, (S)-1-(4-Chloro-phenyl)-7-isopropoxy-6-methoxy-2-(4-{methyl-[4-(4-methyl-3-oxo-piperazin-1-yl)-trans-cyclohexylmethyl]-amino}-phenyl)-1,4-dihydro-2H-isoquinolin-3-one]", "values": [
      {"measurement": "IC50", "setting": "RKO", "value": 1200, "unit": "nM"},
      {"measurement": "IC50", "setting": "LS-180", "value": 700, "unit": "nM"},
      {"measurement": "IC50", "setting": "GP2d", "value": 800, "unit": "nM"},
      {"measurement": "IC50", "setting": "HCT-116", "value": 100, "unit": "nM"},
      {"measurement": "IC50", "setting": "LoVo", "value": 600, "unit": "nM"},
      {"measurement": "Single agent growth inhibition, in words", "setting": "[1]", "value": "inhibited the growth of cell lines with sub-micromolar to micromolar IC50 values"}
    ]}
  ]
}
